Laboratory results: patent publication US20140350049A1, “METHODS AND PHARMACEUTICAL COMPOSITIONS FOR THE TREATMENT OF DARIER DISEASE” (INSERM (INSTITUT NATIONAL DE LA SANTE ET DE LA RECHERCHE …, priority 2011, published 2014)

Assays:
Type in all cases: cell-based, human
[1] = system: Darier keratinocytes (DK); assay: ER stress response (eIF2α and IRE1 phosphorylation, Western-Blot) in Darier keratinocytes; conditions: for TG-induced eIF2α phosphorylation: DK pre-treated 24 h with PBA 5 mM or Miglustat 500 μM
Protocol: (§1) Cell Culture. Keratinocytes were grown in 0.06 mM CaCl2 EpiLife medium (Invitrogen) to 60-80% confluence and then incubated in 1.2 mM CaCl2 EpiLife medium for 4 hours to induce formation of cell-cell contacts.
(§2) Treatments with drugs. For ER stress induction, keratinocytes grown in high Ca^2+ (1.2 mM) medium were incubated with thapsigargin (TG, Sigma) at 1 μM for different time periods. For inhibition of SERCA pump in NK, keratinocytes were pretreated with 100 nM of TG for 30 min in low Ca^2+ (0.06 mM) medium. Medium was removed, and cells were incubated in high Ca^2+ (1.2 mM) medium for an additional 4 hours to induce the formation of cell-cell contacts.
(§3) Western-Blot. Keratinocytes were lysed in buffer containing 50 mM Tris (pH8), 120 mM NaCl, 0.5% NP-40, Complete™ protease inhibitors cocktail (Roche) and phosphatase inhibitor cocktail 2 (Sigma) for 30 minutes on ice and pelleted by centrifugation. The supernatant was collected for the quantification of protein amount by the Bradford assay. Equal amounts of soluble protein were added to Laemmli buffer (62.5 mM Tris HCl, pH 6.8, 5% ®-mercaptoethanol, 2% SDS, 10% glycerol, and 0.002% bromophenol blue). Samples were separated by SDS-PAGE and transferred onto Hybond-C extra membrane (GE Healthcare). β-actin immunodetection was used as a loading control. Blots were developed by chemiluminescence (ECL Advance, GE Healthcare or SuperSignal West Dura, Pierce).

[2] = system: Darier keratinocytes (DK); assay: ER morphology in chaperone-treated Darier keratinocytes (immunofluorescence); conditions: DK pre-treated 24 h with PBA 5 mM or Miglustat 500 μM
Protocol: as §2
(§4) Immunofluorescence. Keratinocytes were cultured on coverslips, fixed with 4% paraformaldehyde for 30 minutes at room temperature, and permeabilized with 0.2% TritonX-100 in PBS for 10 minutes. After blocking with 1% fetal bovine serum in PBS, cells were incubated with primary antibodies at 4° C. overnight. Subsequently, cells were incubated with the appropriate Alexa-conjugated secondary antibody at room temperature for 1 hour. […]
(§5) Quantification of intracellular compartment volumes and co-localization. For volume quantifications, all Z-series reconstructions were imaged with a pinhole of 1 Airy Unit with an optimal Z-step. […] Each isosurfaced was selected and the volume statistic recorded. Quantification of the co-localization signals was performed using the Metamorph (Molecular Devices) software. In a single optical section, the surface of the red signal (E-cadherin) that merges with a green signal (Calnexin) was calculated.

[3] = system: Darier keratinocytes (DK); assay: Adherens junction formation in chaperone-treated Darier keratinocytes (immunofluorescence); conditions: for F-actin network organisation / cell shape (polygonal phenotype, characteristic of cell-to-cell adhesion) / staining of AJ components (E-cadherin and catenins) at the plasma membrane: DK pre-treated 24 h with PBA 5 mM or Miglustat 500 μM; for staining of AJ components (E-cadherin and catenins) at the plasma membrane: then 1.2 mM Ca2+
Protocol: (§6) Cell Culture. Keratinocytes were grown in 0.06 mM CaCl2 EpiLife medium (Invitrogen) to 60-80% confluence and then incubated in 1.2 mM CaCl2 EpiLife medium for 4 hours to induce formation of cell-cell contacts. […] Treatments with drugs. For ER stress induction, keratinocytes grown in high Ca^2+ (1.2 mM) medium were incubated with thapsigargin (TG, Sigma) at 1 μM for different time periods. For inhibition of SERCA pump in NK, keratinocytes were pretreated with 100 nM of TG for 30 min in low Ca^2+ (0.06 mM) medium. Medium was removed, and cells were incubated in high Ca^2+ (1.2 mM) medium for an additional 4 hours to induce the formation of cell-cell contacts. […] Immunofluorescence. Keratinocytes were cultured on coverslips, fixed with 4% paraformaldehyde for 30 minutes at room temperature, and permeabilized with 0.2% TritonX-100 in PBS for 10 minutes. After blocking with 1% fetal bovine serum in PBS, cells were incubated with primary antibodies at 4° C. overnight. Subsequently, cells were incubated with the appropriate Alexa-conjugated secondary antibody at room temperature for 1 hour. For actin staining, cells were incubated with phalloidin-TRITC at room temperature for 1 hour. Lastly, coverslips were mounted on glass slides using Vectashield Hard set (Vector laboratories) and examined using a Zeiss LSM 710 confocal microscope with a 40 Plan-Apochromat objective (1.3 oil) or a 63 Plan-Apochromat objective (1.4 oil), together with a 2× zoom.

[4] = system: Darier keratinocytes (DK); assay: E-cadherin and SERCA2 expression in chaperone-treated Darier keratinocytes; conditions: DK treated with PBA or Miglustat
Protocol: as §3, with “Treatments with drugs. For ER stress induction, keratinocytes grown in high Ca^2+ (1.2 mM) medium were incubated with thapsigargin (TG, Sigma) at 1 μM for different time periods. For inhibition of SERCA pump in NK, keratinocytes were pretreated with 100 nM of TG for 30 min in low Ca^2+ (0.06 mM) medium. Medium was removed, and cells were incubated in high Ca^2+ (1.2 mM) medium for an additional 4 hours to induce the formation of cell-cell contacts. […] Western-Blot.” for “Western-Blot.”

[5] = system: normal keratinocytes (NK); assay: ER stress response (eIF2α phosphorylation, Western-Blot) in normal keratinocytes; conditions: TG 1 μM, high Ca2+ (1.2 mM) medium
Protocol: as §1, §2
as §3, with “Blots were developed by chemiluminescence (ECL Advance, GE Healthcare or SuperSignal West Dura, Pierce).” left out

[6] = system: Darier keratinocytes (DK); assay: XBP1 mRNA splicing (RT-PCR) after TG treatment; conditions: DK compared to NK, TG 1 μM
Protocol: as §2
RT-PCR. RNA was isolated from keratinocytes using TRIzol (Invitrogen) and reverse transcribed using hexamer primers and Moloney murine leukemia virus RT. PCR amplification was performed.

[7] = system: normal keratinocytes (NK); assay: ER volume and cell spreading in TG-treated normal keratinocytes (immunofluorescence, volume quantification); conditions: TG-treated NK compared to untreated NK
Protocol: as §2, §4, §5

[8] = system: normal keratinocytes (NK); assay: Adherens junction formation in TG-pretreated normal keratinocytes (immunofluorescence); conditions: TG-pretreated NK (100 nM, 30 min) cultured in 1.2 mM Ca2+ for 4 hours
Protocol: as §6, with “Lastly, coverslips were mounted on glass slides using Vectashield Hard set (Vector laboratories) and examined using a Zeiss LSM 710 confocal microscope with a 40 Plan-Apochromat objective (1.3 oil) or a 63 Plan-Apochromat objective (1.4 oil), together with a 2× zoom.” left out

[9] = system: normal keratinocytes (NK); assay: E-cadherin retention in the ER (co-localization with calnexin) in TG-treated normal keratinocytes
Protocol: as §2, §4, §5

SMILES	TG-induced eIF2α phosphorylation [1]	ER expansion / perinuclear condensation of the ER [2]	F-actin network organisation [3]	cell shape (polygonal phenotype, characteristic of cell-to-cell adhesion) [3]	staining of AJ components (E-cadherin and catenins) at the plasma membrane [3]	E-cadherin expression [4]	SERCA2 expression [4]	effect on E-cadherin localization ([3]; DK, 500 μM, 24 h pre-treatment)	plasma membrane localization of E-cadherin ([3]; DK, lower concentration (100 μM))	increase of phospho-eIF2α after exposure to thapsigargin ([1]; DK, TG 1 μM, high Ca2+ (1.2 mM) medium)	IRE1 phosphorylation after exposure to thapsigargin ([1]; DK, TG 1 μM, extent higher than in NK)	increase of phospho-eIF2α after exposure to thapsigargin [5] [fold]	spliced, active form of XBP1 mRNA after TG treatment [6]	number of confluent cells per microscopy field [7]	ER volume ([7]; TG 100 nM 30 min)	adherens junction (E-cadherin, catenins, F-actin) organisation [8]	E-cadherin intracellular surface overlapping with the calnexin positive compartment [9]
O=C(O)CCCc1ccccc1 [PBA, 4-phenylbutyric acid]	decreased	restored perinuclear condensation of the ER	cortical bundles of F-actin parallel and closer to the cell membrane	acquired a pronounced polygonal shape	a linear, sharp and more intense pericellular staining of E-cadherin and catenins	neither PBA nor Miglustat increased	neither PBA nor Miglustat increased										
CCCCN1C[C@H](O)[C@@H](O)[C@@H](O)[C@H]1CO [NB-DGJ]								had not effect									
CCCCN1C[C@H](O)[C@@H](O)[C@H](O)[C@H]1CO [Miglustat, 1,5-(butylimino)-1,5-dideoxy-D-glucitol]	Neither TG-induced eIF2α phosphorylation nor ER expansion were reduced	Neither TG-induced eIF2α phosphorylation nor ER expansion were reduced	polymerization of the F-actin network	all cells present a polygonal phenotype	a narrow, intense, continuous pericellular staining of all AJ components at the plasma membrane	neither PBA nor Miglustat increased	neither PBA nor Miglustat increased		increased plasma membrane localization of E-cadherin only in a limited number of cells								
C/C=C(/C)C(=O)O[C@H]1C(C)=C2[C@H]([C@@H]1OC(=O)CCCCCCC)[C@@](C)(OC(C)=O)C[C@H](OC(=O)CCC)[C@@]1(O)[C@H]2OC(=O)[C@@]1(C)O [TG, thapsigargin]										2- to 3 fold	increased	1.5	increased in DK compared to NK	always smaller	two-fold increase	AJ abnormalities similar to those in DK	significant E-cadherin retention in the ER
